We go through five compounds from patent US10444244B2, “Microfluidic array supporting a lipid bilayer assembly” (DUBLIN CITY UNIVERSITY, priority 2014, dated 2019).

Series [1] is described as follows: EIS of DOPC bilayer with K+/H+ gradient after Nigericin incorporation. It is filed as physicochemical. To be noted: 20 μM from ethanol solution; cavities 150 mM K+, outside citrate buffer pH 4, H+ 10 mMol. The procedure: (§1) Gold microcavity electrodes were formed through the method described herein using electrodeposition of gold through a close packed array of polystyrene spheres (2.88 micron in diameter) after which the spheres where removed by sonication in THF for 30 minutes. The gold microcavity array was then modified with mercaptoethanol (ME) by placing the substrate in a 1 mM solution of ME, in ethanol, for 24 hours. Alternatively it is possible to selectively modify the top surface with mercaptonexanol before removal of the spheres and leave the cavities free of surface modification after sphere removal. This latter approach gives even greater reproducibility.
Nigericin is an antiporter of H+ and K+, Herein, the cavities where prefilled with 150 mM K+ before bilayer formation. Citrate buffer (at pH 4) was then added to the electrolyte to supply the system with H+(10 mMol) ions on the outside of the bilayer. The impedance of the DOPC bilayer was measured in the presence of this ionic gradient.

Series [2] can be described thus: EIS of DOPC bilayer with K+/Na+ ion gradient after Valinomycin incorporation. Conditions: 20 μM from ethanol solution; cavities Tris KCl, contacting solution Tris NaCl. It is filed as physicochemical. The method, then: as §1
After sonication a DOPC bilayer was formed over the micro-cavities using a combination of Langmuir-Blodgett and vesicle fusion as described above.
Electrochemical impedance spectra (EIS) of this bilayer were measured by placing the array in contact with Tris NaCl. This creates an ion gradient across the lipid bilayer. The bilayer, effectively insulates the pore from the external contacting solution but once Valinomycin is introduced this should cause K+ ions to flow from inside the cavities into the bulk solution (see schematic in FIG. 18). The impedance of the DOPC bilayer was measured in the presence of this ionic gradient. Valinomycin was then introduced into the cell by adding 20 μM from an ethanol solution. […]

Series [3] can be described thus: FLCS/FCS of labelled lipid diffusion in DOPC bilayer over buffer-filled PDMS cavity array after drug addition. Conditions: for impact on diffusion of the lipophilic BODIPY-HPC probe: PBS pH 7.4, 15 mins incubation, ibuprofen 4-200 μmol, diclofenac 4-800 μmol. The class given is physicochemical. The method, then: The lower dye concentration is required for FLCS experiments.
FLCS measurements were recorded over cavities as well as flat PDMS surfaces to obtain the autocorrelation functions for each surface. […] The autocorrelation curves obtained were fit to the 2-dimensional model described in equation 1 to obtain the lateral diffusion co-efficient of the lipids in the bilayer.
where, G(τ) is the autocorrelation function, N is the average number of fluorescent molecules present in the confocal volume, τi is the characteristic residence time, and α is the anomalous parameter which reflects the extent of deviation of diffusion from normal or Brownian motion where α=1, i is the index of the components. The lateral diffusion coefficient, DL, can be obtained as DL=ω^2/4τi. In this equation, ω is the radius of the laser beam used. To determine ω for each excitation, a reference solution of free dye was used for which the diffusion coefficient is known.
The probe is BODIPY labelled DOPE at 1% mol/mol lipid.
Monitoring the diffusion of each probe permitted assessment of interaction of the drug with the membrane and where this interactions occurred; i.e. did it bind to the interface or intercalate in the bilayer? Only a single probe is necessary in most instances, however depending on the sophistication of the FCS instrument two labels can be used in a single two colour experiment or they can be applied in separate experiments to yield detailed insights into the location of the drug at the membrane.

The conditions of series [4]: for decrease in resistivity of DOPC bilayer: between 0 and 400 umol drug, PBS buffer pH 7.4 on both sides of the pore.
Description: A gold microcavity electrode is first modified with 2-mercaptoethanol by immersing them in a 1 mM solution in ethanol overnight after which they are sonicated in Tris buffer for 30 munities to pre fill the cavities (in the gold electrode or substrate). A DOPC monolayer is then deposited onto the microcavity electrode using a Langmuir-Blödgett deposition of monolayer followed by DOPC disruption at this monolayer to form a bilayer.
Measurements are performed with a potential of 0 V and a frequency range of 0.01 Hz to 100000 Hz with a standard 3 electrode set up with an Ag/AgCl reference electrode. All experiments are performed in Tris NaCl buffer with the cell contained inside a Faraday cage.
Electrochemical Impedance Spectroscopy (EIS) is highly sensitive to changes in the bilayer and this sensitivity can be enhanced by using an electrochemical probe such as ferrocyanide in the contacting solution (i.e., solution contacting the outer surface of the array) or in applying an ionic gradient across the membrane by applying slightly different pH or ionic strength at the solution at each side of the membrane e.g., by pre-filling the cavities with a different ionic strength solution to that contacting solution which will operably be in contact with the top leaflet of the bilayer (i.e. away from the cavity). Within this context the inner membrane leaflet refers to the lipid layer closest to the cavities and the outer leaflet is that the lipid layer pointed away from the cavities and operably in contact with the contacting solution that is introduced into the inlet and out through the outlet of the microfluidic platform.
The experiment was carried out in PBS buffer at pH 7.4 at room temperature with cavities filled with same buffer solution. A microfluidic platform having an inlet and outlet (similar to the platform of FIG. 2) is used to introduce the ibuprofen to the bilayer.
The bilayers are stable to introduction of several volumes of buffer at the end of a study and we were able to monitor for reversibility of binding.
A short description of series [5]: Electrorelease of CD from cavity to cholesterol containing bilayer, bilayer resistance. The class given is physicochemical. The source says: As an example. Mercaptoferrocene was self-assembled only at the inner cavity surface and a blocking thiolated alcohol (mercaptoethanol or mercaptohexanol) was assembled at the top surface of the array, by modification of the top surface of the array prior to release of the templating sphere and then adhering the ferrocene after sphere removal. The ferrocene binds selectively to streptavidin modified beta-cyclodextrin (CD-streptavidin) which is assembled prior to assembly of the DOPC/DOPC biotinylated bilayer. Application of 0.5 V vs Ag/AgCl results in oxidation of the ferrocene, which in the presence of Na+ acquires a permanent positive charge, preventing reassembly of the CD-streptavidin. The released CD-streptavidin diffuses to the bilayer where its streptavidin pendant recognises and binds to biotin. Such electrorelease can be combined with EIS to allow for the detection of interaction of released agent with the bilayer, and/or it can also be combined with spectroscopic methods, such as Raman and fluorescence spectroscopy for further investigation. […] In principle, the quantity of cholesterol removed can be controlled by altering the quantity of CD at the cavity through use of a mixed monolayer

[6] abbreviates: DOPC bilayer, 2.8 um PDMS pores.

Turning to `CO[C@@H]1C[C@@H](C[C@H]2CC[C@H](C)[C@H]([C@@H](C)C(=O)O)O2)O[C@]2(O[C@](C)([C@H]3CC[C@@](C)([C@@H]4O[C@@H]([C@H]5O[C@@](O)(CO)[C@H](C)C[C@@H]5C)C[C@@H]4C)O3)C[C@H]2C)[C@@H]1C` [Nigericin], in series [1], the “change of bilayer resistance after ionophore incorporation” value is reported as “a decrease in the resistance was observed”.

Turning to `CC(C)[C@@H]1NC(=O)[C@H](C)OC(=O)[C@@H](C(C)C)NC(=O)[C@@H](C(C)C)OC(=O)[C@H](C(C)C)NC(=O)[C@H](C)OC(=O)[C@@H](C(C)C)NC(=O)[C@@H](C(C)C)OC(=O)[C@H](C(C)C)NC(=O)[C@H](C)OC(=O)[C@@H](C(C)C)NC(=O)[C@@H](C(C)C)OC1=O` [Valinomycin], in series [2], the “change of bilayer resistance after ionophore incorporation” value is listed as “a decrease in the resistance was observed”.

Turning to `O=C(O)Cc1ccccc1Nc1c(Cl)cccc1Cl` [diclofenac], the “diffusion coefficient of Atto-655 labelled DOPE” value in series [3] (800 μmol diclofenac, DOPC bilayer, PBS pH 7.4, at 0 drug 11.71±0.82) is reported as 43.5±8.13 μm^2 s^−1. For the same compound, in series [3] (setting [6]), the “impact on diffusion of the lipophilic BODIPY-HPC probe” value was “little effect”. The “decrease in resistivity of DOPC bilayer” value in series [4] is 65%.

For the compound `CC(C)Cc1ccc(C(C)C(=O)O)cc1` (stereo not drawn) [ibuprofen], in series [3] (100 μmol of ibuprofen, DOPC bilayer, PBS pH 7.4, without drug 10.37±0.72), the “diffusion coefficient of the ATTO probe (DOPE-ATTO655)” value came out at 12.05±0.6 μm^2 s^−1. Besides, in series [3] (setting [6]), the “impact on diffusion of the lipophilic BODIPY-HPC probe” value is listed as “little impact”. Also, the “membrane lipid diffusion coefficient after exposure of the bilayer” value in series [3] (ibuprofen 4 mMol, DOPC bilayer with 1% mol/mol BODIPY labelled DOPE, 2.8 um PDMS pores, PBS pH 7.4, room temperature, without drug approximately 7) is listed as “approximately 9.5 μms^−1”. In series [4], the “decrease in resistivity of DOPC bilayer” value is “roughly 6%”. Further, the “effect on capacitance of the layer” value in series [4] (ibuprofen at 4 and then 8 mMol, 2.8 μm gold cavity arrays, PBS pH 7.4) was “initially in a decrease followed by a substantial increase in capacitance”. For the same compound, in series [4] (ibuprofen at 4 and then 8 mMol, 2.8 μm gold cavity arrays, PBS pH 7.4, room temperature, ferrocyanide redox probe), the “effect on impedance of the bilayer at equilibrium” value was “decrease in impedance”.

`OC[C@H]1O[C@@H]2O[C@H]3[C@H](O)[C@@H](O)[C@@H](O[C@H]4[C@H](O)[C@@H](O)[C@@H](O[C@H]5[C@H](O)[C@@H](O)[C@@H](O[C@H]6[C@H](O)[C@@H](O)[C@@H](O[C@H]7[C@H](O)[C@@H](O)[C@@H](O[C@H]8[C@H](O)[C@@H](O)[C@@H](O[C@H]1[C@H](O)[C@H]2O)O[C@@H]8CO)O[C@@H]7CO)O[C@@H]6CO)O[C@@H]5CO)O[C@@H]4CO)O[C@@H]3CO` [unlabeled CD, beta-cyclodextrin]: in series [5], the “effect of electroreleased agent on cholesterol containing bilayer” value is “removal of cholesterol from the bilayer, reflected in a decrease in resistance of the bilayer film”.
